How the values were obtained:
[1] = tested on: Panelists; assay: Paired comparison human taste test, chocolate milk; assay type: in vivo
Procedure: Chocolate beverage powder can be prepared using, for example, the following ingredients and reconstituted in milk.
A KitchenAide mixer is equipped with a wire whip attachment and used for mixing sugar and salt for 5 seconds. Lecithin is added and the resulting mixture is mixed for an additional 5 seconds. Cocoa, maltodextrin, and vanillin are added and the mixture is mixed for another 10 seconds.
Chocolate milk preparations were prepared by combining a chocolate beverage mixture with milk and the appropriate amount of sugar, or sugar and 3-(4-amino-2,2-dioxide-1H-benzo[c][1,2,6]thiadiazin-5-yloxy)-2′,2′-dimethyl-N-propylpropanamide. 75.0 grams of Full Sugar Chocolate Beverage Powder was mixed into 250 mls of cold (40° F.) 2% lowfat milk and mixed with a wire whip until dissolved. 45.5 grams of the 50% Sugar Chocolate Beverage Powder was mixed into 250 mls of cold (40° F.) 2% lowfat milk and mixed with a wire whip until the powder was dissolve. The Compound A was dissolved into a 0.10% concentration level in propylene glycol and added to the chocolate milk, mixed with a wire whip until homogenous, about 2 minutes.

[2] = tested on: Panelists; assay: Paired comparison taste test, strawberry yogurt; assay type: in vivo, Human
Procedure: Two strawberry yogurt compositions were prepared and then mixed with plain, nonfat yogurt. One strawberry fruit composition was sweetened with a mixture of sucrose and fructose, and a second strawberry fruit composition was sweetened with ⅓ less sucrose and 3 ppm of 3-(4-amino-2,2-dioxide-1H-benzo[c][1,2,6]thiadiazin-5-yloxy)-2′,2′-dimethyl-N-propylpropanamide. The compositions of the two fruit compositions are as follows:
Panelists evaluated two yogurt compositions in a paired comparison taste test procedure and were instructed to select the sweeter of the two samples. They perform a total of three paired comparison tests each containing the following samples: Strawberry Yogurt with 100% Sucrose vs. Strawberry Yogurt with 66.6% Sucrose+3 ppm (8.47 μM) 3-(4-amino-2,2-dioxide-1H-benzo[c][1,2,6]thiadiazin-5-yloxy)-2′,2′-dimethyl-N-propylpropanamide.
Strawberry Yogurt Preparation: 1000 g batches of finished strawberry yogurt was made by adding 16% (by weight) strawberry fruit prep to 84% (by weight) plain nonfat yogurt and mixing with a wire whip until homogenous, a minimum of five minutes. The Compound A was dissolved into a 0.10% concentration level in propylene glycol and then added to the strawberry yogurt and mixed with a wire whip until homogenous, about 5 minutes.

[3] = tested on: External panelists; assay: Line scale sensory test, Example 6, fructose as sweetener, pH 7.1; assay type: in vivo, Human; design: Average Sweetness / Average Bitterness: scale not given here
Procedure: Sensory evaluations were performed using fructose as the sweetener and 3-(4-amino-2,2-dioxide-1H-benzo[c][1,2,6]thiadiazin-5-yloxy)-2′,2′-dimethyl-N-propylpropanamide as the sweetness enhancer, using methods similar to those using sucrose, above. […]

[4] = tested on: External panelists; assay: Line scale (15-point sucrose equivalence) sensory test, Example 3A/3C, sucrose or LSB, pH 7.1; assay type: in vivo, Human; design: key to Average Sweetness / Average Bitterness: 15-point scale: 0 = 0% sucrose to 15 = 15% sucrose; references = 5
Procedure: Several types of sensory tests were used to determine the efficacy of 5-(neopentyloxy)-1H-benzo[c][1,2,6]thiadiazin-4-amino-2,2-dioxide in enhancing sweetness of sucrose. Two types of tests were conducted: • 1) Sensory scaling tests were performed using a 15-point percent sucrose equivalence scale for sweetness in order to evaluate sweetness enhancement 5-(neopentyloxy)-1H-benzo[c][1,2,6]thiadiazin-4-amino-2,2-dioxide in sucrose, or in fructose. • 2) Paired comparison tests (2-alternative forced choice difference tests) were used to determine sweetness equivalence for solutions of sucrose vs. 5-(neopentyloxy)-1H-benzo[c][1,2,6]thiadiazin-4-amino-2,2-dioxide or buffer vs. 5-(neopentyloxy)-1H-benzo[c][1,2,6]thiadiazin-4-amino-2,2-dioxide. Stimuli:
Tests were performed with sucrose or fructose. Sweetener was evaluated with and/or without 5-(neopentyloxy)-1H-benzo[c][1,2,6]thiadiazin-4-amino-2,2-dioxide at the appropriate concentration(s).
5-(Neopentyloxy)-1H-benzo[c][1,2,6]thiadiazin-4-amino-2,2-dioxide was prepared as a concentrated stock solution in ethanol to ensure dissolution of the compound. Therefore, all taste solutions contained 0.1% ethanol final concentration. Samples without compound also contained 0.1% ethanol. Low sodium phosphate buffer consists of 0.3 mM KCl, 0.5 mM Na2HPO4, and 0.175 mM KH2PO4.
In scaling test situations, the samples were rated on a 15-point scale for sweetness, ranging from 0=0% sucrose to 15=15% sucrose. To evaluate attributes other than sweetness, references are used for training and are prepared according to the table below. Note that each reference was given a score of 5 on the 15-point scale.
External panelists were used for the tests. The exact number of panelists is reported with test results. Subjects were instructed not to eat or drink anything (except water) for at least 1 hour prior to the test.
Panelists rinsed their mouths with water prior to starting any test. Samples were presented to panelists in a randomized, counterbalanced order. Panelists rinsed with water and had up to a 1 minute delay to clear the mouth of any tastes after each evaluation. Two replicates of each test were performed, unless otherwise noted.

In the case of `CCCNC(=O)C(C)(C)COc1cccc2c1C(N)=NS(=O)(=O)N2` [3-(4-amino-2,2-dioxide-1H-benzo[c][1,2,6]thiadiazin-5-yloxy)-2′,2′-dimethyl-N-propylpropanamide], the “Sample selected as sweeter by panelists, Total” value ([1]; Chocolate Milk with 50% Sugar + compound (7 ppm/(20 μM)) chosen, vs 100% Sugar, n = 51) is reported as 28, the “Sweetness comparison (conclusion)” value ([1]; chocolate milk with 50% Sugar + compound (7 ppm/(20 μM)) vs full sugar, p>0.10) is reported as “not significantly different in sweetness” and the “Sample selected as sweeter by panelists, Total” value ([2]; Strawberry Yogurt with 4.5% Sucrose + 3 ppm (8.47 μM) compound chosen, vs 6.7% Sucrose, n = 72) is reported as 33. For the same molecule, the “Sweetness comparison (conclusion)” value ([2]; Strawberry Yogurt with 66.6% Sucrose + 3 ppm (8.47 μM) compound vs 100% Sucrose, p>0.10) was “not significantly different in sweetness”, the off tastes ([3]; 25 μM compound in 6% fructose, LSB, pH 7.1) was “no significant off tastes” and the “Average Sweetness” value ([3]; 30 μM (10.6 ppm) compound, no fructose, pH 7.1, n = 30) was 0.6. For the same molecule, the off tastes ([3]; 30.0 μM and 40 μM compound) was “no significant off tastes”, the “Average Bitterness” value ([3]; 30 μM compound, no fructose, n = 30) was 0.4 and the “Sweetness vs fructose solutions (conclusion)” value ([3]; 30.0 μM compound, p>0.10) was “not significantly different in sweetness compared to 0% and 2% fructose respectively”. For the same molecule, the “Average Sweetness” value ([3]; 40 μM (14.2 ppm) compound, no fructose, pH 7.1, n = 30) was 1.1, the “Average Bitterness” value ([3]; 40 μM compound, no fructose, n = 30) was 0.6 and the “Sweetness vs fructose solutions (conclusion)” value ([3]; 40 μM compound, p>0.10) was “not significantly different in sweetness compared to 0% and 2% fructose respectively”. For the same molecule, the off tastes ([3]; 100 μM compound in 6% fructose, LSB, pH 7.1) was “no significant off tastes”, the “Average Sweetness” value ([3]; 6% Fructose + 25 μM (8.9 ppm) compound, pH 7.1, n = 26) was 7.8 and the “Average Bitterness” value ([3]; 6% Fructose + 25 μM compound, n = 26) was 0.2. The “Average Sweetness” value ([3]; 6% Fructose + 100 μM (35.4 ppm) compound, pH 7.1, n = 14) was 9.2, the “Average Bitterness” value ([3]; 6% Fructose + 100 μM compound, n = 14) was 0.3 and the “Sweetness vs fructose solutions (conclusion)” value ([3]; 6% fructose + 25 μM compound, p>0.05) was “significantly sweeter than 6% fructose”. The “Sweetness vs fructose solutions (conclusion)” value ([3]; 6% fructose + 100 μM compound, p>0.10) was “not significantly different than 8% or 9% fructose”.
`OC[C@H]1O[C@@](CO)(O[C@H]2O[C@H](CO)[C@@H](O)[C@H](O)[C@H]2O)[C@@H](O)[C@@H]1O` [Sucrose, sucrose] was tested, and the “Average Sweetness” value ([4]; 2% Sucrose, Table 10, n = 14) was 2.1, the “Average Bitterness” value ([4]; 2% Sucrose, Table 12, n = 14) was 0.1 and the “Average Sweetness” value ([4]; 4% Sucrose, Table 10, n = 14) was 3.8. For the same molecule, the “Average Bitterness” value ([4]; 4% Sucrose, Table 12, n = 14) was 0.0, the “Average Sweetness” value ([4]; 6% Sucrose, Table 10, n = 14) was 6.0 and the “Average Sweetness” value ([4]; 6% Sucrose, Table 11, n = 14) was 7.3. For the same molecule, the “Average Bitterness” value ([4]; 6% Sucrose, Table 12, n = 14) was 0.4, the “Average Bitterness” value ([4]; 6% Sucrose, Table 13, n = 14) was 0.4 and the “Average Bitterness” value ([4]; 6% Sucrose, pH 7.1, n = 32) was 0.3. The “Average Sweetness” value ([4]; 6% Sucrose, pH 7.1, n = 32) was 6.5, the “Average Sweetness” value ([4]; 8% Sucrose, Table 11, n = 14) was 8.6 and the “Average Bitterness” value ([4]; 8% Sucrose, Table 13, n = 14) was 0.4. For the same molecule, the “Average Bitterness” value ([4]; 8% Sucrose, pH 7.1, n = 32) was 0.3, the “Average Sweetness” value ([4]; 8% Sucrose, pH 7.1, n = 32) was 7.9 and the “Average Sweetness” value ([4]; 9% Sucrose, Table 11, n = 14) was 9.4. For the same molecule, the “Average Bitterness” value ([4]; 9% Sucrose, Table 13, n = 14) was 0.6, the “Average Bitterness” value ([4]; 9% Sucrose, pH 7.1, n = 32) was 0.2 and the “Average Sweetness” value ([4]; 9% Sucrose, pH 7.1, n = 32) was 8.9. The “Average Sweetness” value ([4]; 10% Sucrose, Table 11, n = 14) was 9.6, the “Average Bitterness” value ([4]; 10% Sucrose, Table 13, n = 14) was 0.2 and the “Average Bitterness” value ([4]; 10% Sucrose, pH 7.1, n = 32) was 0.3. For the same molecule, the “Average Sweetness” value ([4]; 10% Sucrose, pH 7.1, n = 32) was 9.3.

Reference: patent US8609173B2, “Compositions comprising sweetness enhancers and methods of making them” (Senomyx Inc., priority 2008, dated 2013)
